From patent publication US20220162215A1, “COMPOSITIONS AND METHODS OF USING THE SAME FOR TREATMENT OF NEURODEGENERATIVE AND MITOCHONDRIAL DISEASE” (MITOKININ, INC., priority 2019, published 2022)
Like-named read-outs stand apart in the source and are kept apart here.

How the values were obtained:
HeLa MKYP cells [1] = assay: Human mitophagy assay (HeLa MKYP, mtKeima FACS, FCCP/oligomycin); format: cell-based; conditions: for EC50: Homo sapiens, HeLa
Description: Briefly, HeLa MKYP cells were plated at 10,000 cells/well in 96 well plates along with compounds at various concentrations. Following 16 hrs of incubation, cells were treated with 1 uM FCCP/oligomycin for 6 hours, then analyzed via FACS for the presence of mitochondria in lysosomes (as determined by an emissions spectrum shift from the pH-sensitive mtKeima tag). Examples are shown in FIG. 1 through FIG. 13 below.

HeLa MKYP cells [2] = assay: Toxicity / cell death measured by DAPI staining (take-up); format: cell-based
Description: H2O2 treatment was performed as a control for cell death as measured by DAPI staining.
Briefly, HeLa MKYP cells were plated at 10,000 cells/well in 96 well plates along with compounds at various concentrations. Following 16 hrs of incubation, cells were treated with 1 uM FCCP/oligomycin for 6 hours, then analyzed via FACS for the presence of mitochondria in lysosomes (as determined by an emissions spectrum shift from the pH-sensitive mtKeima tag).

PINK1 = biological target: T1, PINK1 (Homo sapiens, UniProt Q9BXM7); assay: Human Phospho-Ubiquitin (pS65) ub2 assay (western blot, in vitro PINK1 kinase assay); format: cell-based; conditions: in the presence of 0.5 μM FO; FIG. 14
T1 construct: for each cell type tested (HeLa-MKYP WT or PINK1^KO); endogenous in cells; host or cells: HeLa-MKYP (WT) / HeLa cells
Description: Briefly, HeLa MKYP cells were plated at 1,300,000 cells/plate in 10 cm plates in 10 mL of medium containing compound at various concentrations. Following 16 hrs of incubation, cells were treated with 0.5 uM FCCP/oligomycin for 2 hours, then harvested. Mitochondria were then isolated according to published protocols (Ordureau et al, 2014; https://doi.org/10.1016/j.molcel.2014.09.007). Equal amounts of samples were loaded on 26 well gradient gels, and a western blot analysis was performed using commercially available antibodies for various markers, including […].

PINK1/parkin pathway = assay: Parkin recruitment to mitochondria, live cell imaging; format: cell-based, human; conditions: PINK1wt vs PINK1ko cells, FIG. 18
Description: When the PINK1/parkin pathway is activated by FCCP, PINK1 is stabilized on the mitochondrial membrane, and its activity leads to the recruitment of parkin to the mitochondria (Narendra et al., PLoS Biol 2010; Narendra et al., J. Cell Biol 2008; Vives-Bauza et al., PNAS 2009). The aim of this assay is to test how MTK compounds affect the speed of parkin recruitment to the mitochondria. Briefly, HeLa-MKYP cells were plated at 7,000 cells/well in 96-well plates along with compounds at various concentrations. Following 16 hours of incubation, cells were treated in phenol-free media with 1 μM FCCP/oligomycin (F/O) along with compounds at various doses for 2-3 hours. Immediately following addition of new media, the cell treatment plate was transferred to a CO2 and temperature-regulated chamber in a high-content imaging microscope [Molecular Devices], to acquire images from live cells at regular intervals during the treatment timecourse. Appropriate controls were included on each plate to obtain a maximum signal from treatment with 2 μM F/O, or a minimum signal from cells treated with no F/O with DMSO for each cell type tested (HeLa-MKYP WT or PINK1^KO). Images were analyzed using MetaExpress 6 software package, and automatically processed after setting thresholds to define overlap between the YFP-parkin signal and red mitochondrial signal based on controls. […]

[3] = tested on: phospho-serine 129 synuclein (pS129); assay: Preformed α-syn amyloid fibril (PFF) primary neuron model; format: cell-based, mice
Description: Briefly, primary hippocampal neurons were derived and cultured following standard protocols. At DIV-7, the cultures were treated with PFFs. At DIV-10, the cultures began treatment with a Mitokinin compound or vehicle controls, such treatment continuing for the duration of the experiment. The cultures were fixed and stained for alpha synuclein, TUJ1, and MAP2 at DIV-14, and analysis performed by unbiased imaging on an ImageXpress Confocal microscope and quantified by Molecular Devices' MetaXpress software.

[4] = In vivo summary, pharmacokinetics, mouse
Description: (§1) Referring to Tables 8A-C below, an in vivo summary of EP-0035985 IV at 1 mg/kg (8A), PO 10 mg/kg (8B), and a tissue distribution, mouse (8C) is shown below.

[5] = In vivo summary, pharmacokinetics, rat
Description: as §1

[6] = tested on: Hela MKYP (Mito-Keima/YFP-Parkin) cells; assay: Inspection of round cells; conditions: Tables 6A-6D
Description: Briefly, the Hela MKYP (Mito-Keima/YFP-Parkin) cells were seeded at 10K cells/well. EP/MTK compounds were added at seeding (cells were still in suspension). The cells were incubated with the EP/MTK compounds for 16 hours, then 1 μM FCCP/oligomycin was added for 6 hours. Prior to harvesting, cells were scored by eye under 20× magnification for the presence or absence of crystalline or aggregated compound, or round cells.

[7] = in vivo, IV at 1 mg/kg, Table 8A
[8] = in vivo, PO 10 mg/kg, Table 8B, read-out: C0

T1 sequence (Q9BXM7 78-581): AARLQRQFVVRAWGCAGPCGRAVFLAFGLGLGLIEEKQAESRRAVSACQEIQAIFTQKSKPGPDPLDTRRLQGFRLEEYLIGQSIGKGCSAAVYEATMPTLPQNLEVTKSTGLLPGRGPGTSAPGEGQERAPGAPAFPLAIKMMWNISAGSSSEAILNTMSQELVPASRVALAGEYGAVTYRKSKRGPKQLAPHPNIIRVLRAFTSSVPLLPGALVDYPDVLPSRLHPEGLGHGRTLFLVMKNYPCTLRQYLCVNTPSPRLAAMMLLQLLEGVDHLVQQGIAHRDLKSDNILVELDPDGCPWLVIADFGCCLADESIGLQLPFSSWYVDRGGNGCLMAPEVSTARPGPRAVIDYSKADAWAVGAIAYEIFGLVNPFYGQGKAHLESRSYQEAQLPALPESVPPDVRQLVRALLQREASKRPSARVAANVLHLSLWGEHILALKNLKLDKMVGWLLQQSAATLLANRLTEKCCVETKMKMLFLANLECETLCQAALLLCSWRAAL

FC(F)(F)c1cc2c(NC3CCCc4ccccc43)ncnc2[nH]1 (stereo not shown) [Compound 15]
EC50 (HeLa MKYP cells [1]; Table 3 Supplement B, read-out: Mitophagy EC50 (HeLa mKeima assay)): 440 ± 120 nM
EC50 (HeLa MKYP cells [1]; Table 4, read-out: Potency (EC50 Max Mitophagy)): 440 ± 120 nM
mitophagy as measured by FACS mKeima (HeLa MKYP cells [1]; PINK1wt vs PINK1ko cell lines, FIG. 19): increases mitophagy as measured by FACS mKeima in PINK1^wt but not PINK1^ko cell lines
Potency at 1 μM F/O toxin* (HeLa MKYP cells [1]; Table 2, % activation of mitophagy at 1.6 μM treatment of the compound): 55.5%
Toxicity (% positive for DAPI takeup @ 50 μM) (HeLa MKYP cells [2]; Table 2): 2.1%
Max cell death at 25 uM compound, 1 uM FO (HeLa MKYP cells [2]; Table 3 Supplement B, 25 uM compound, 1 uM FO): 10.7%
Cell death at 25 μM (no FO) (HeLa MKYP cells [2]; Table 3 Supplement B, 25 μM, no FO): 2.59%
Toxicity (% positive for DAPI takeup @ 50 μM) (HeLa MKYP cells [2]; Table 4): 2.4%
pS65 Ub signal (PINK1): increases the pS65 Ub signal
rate of Parkin recruitment (PINK1/parkin pathway): increases the rate of Parkin recruitment in PINK1^wt but not PINK1^ko cells
EC50 ([3]; FIG. 22A, 22B, read-out: EC50 of decrease of pS129 synuclein increase driven by PFF addition): 981 nM
pS129 synuclein in PINK1ko cell lines ([3]; PINK1ko, FIG. 22C): does not decrease pS129 synuclein in PINK1^ko cell lines
AUCExtr ([4]; IV at 1 mg/kg, Table 8A): 1.1%
AUClast ([4]; IV at 1 mg/kg, Table 8A): 481.3 ng·h/mL
C0 ([4]; IV at 1 mg/kg, Table 8A): 1569.0 ng/mL
CL ([4]; IV at 1 mg/kg, Table 8A): 34.3 mL/min/kg
MRTlnf ([4]; IV at 1 mg/kg, Table 8A): 0.7 h
T1/2 ([4]; IV at 1 mg/kg, Table 8A): 1.4 h
Vss ([4]; IV at 1 mg/kg, Table 8A): 1.5 L/kg
Vz ([4]; IV at 1 mg/kg, Table 8A): 4.0 L/kg
AUClast ([4]; PO 10 mg/kg, Table 8B): 357.3 ng·h/mL
AUClnf ([4]; PO 10 mg/kg, Table 8B): 803.3 ng·h/mL
MRTlnf ([4]; PO 10 mg/kg, Table 8B): 17.4 h
Vss ([4]; PO 10 mg/kg, Table 8B): 2.5 L/kg
AUC [4, 7]: 487 ng·h/mL
C0 [4, 8]: 0.5 ng/mL
AUCExtr ([5]; IV at 1 mg/kg, Table 8A): 2.5%
AUClast ([5]; IV at 1 mg/kg, Table 8A): 837.5 ng·h/mL
C0 ([5]; IV at 1 mg/kg, Table 8A): 1667.7 ng/mL
CL ([5]; IV at 1 mg/kg, Table 8A): 19.5 mL/min/kg
MRTlnf ([5]; IV at 1 mg/kg, Table 8A): 2.0 h
T1/2 ([5]; IV at 1 mg/kg, Table 8A): 3.6 h
Vss ([5]; IV at 1 mg/kg, Table 8A): 2.4 L/kg
Vz ([5]; IV at 1 mg/kg, Table 8A): 6.0 L/kg
AUClast ([5]; PO 10 mg/kg, Table 8B): 692.4 ng·h/mL
MRTlnf ([5]; PO 10 mg/kg, Table 8B): 88.1 h
Vss ([5]; PO 10 mg/kg, Table 8B): 7.9 L/kg
AUC [5, 7]: 838 ng·h/mL
AUC ([5]; in vivo, PO 10 mg/kg, Table 8B): 7350 ng·h/mL
C0 [5, 8]: 2.6 ng/mL
Inspection of round cells ([6]; 1.6 μM): 0
Inspection of round cells ([6]; 3.1 μM): 0
Inspection of round cells ([6]; 6.3 μM): 0
Inspection of round cells ([6]; 12.5 μM): 0
Inspection of round cells ([6]; 25.0 μM): 0
Inspection of round cells ([6]; 50.0 μM): 0
